From ChEMBL document CHEMBL1201862, “PubChem BioAssay data set” (2004) come the findings set out here.

SMILES strings stand for the structures.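 The compound was tested at five concentrations on cells cultured in 96-well plates, with a 48-hour exposure period. The concentration for 50% growth inhibition is given as GI50.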 Active and inactive are the calls of the source. Cut-off read from the data, not from the text of the source: active = GI50 up to about 1.1 µM and inactive = higher. Where a SMILES comes first, the peptide text is derived from it. The star is where a group is joined. Boc = CC(C)(C)OC(=O)*; OSu = O=C1CCC(=O)N1O*

Some test systems named below: HT-29; SNB-19; M14; LOX IMVI; MOLT-4; DU-145; UACC-257; K562; NCI-H522; SF-539; PC-3; UACC-62; RPMI-8226; IGROV-1; A498; SF-295; MDA-MB-231; COLO 205; HL-60; MDA-N.
What all share (experiment): NCI tumour cell line growth inhibition, 48 h

In the case of `C=C1c2nc3ccccc3n2C=C(c2ccc(C)cc2)N1c1ccc(OC)cc1`, the GI50 in the test on HT-29 is 8.89 µM (inactive); in the test on SNB-19, > 100 µM (inactive); in the test with M14, 58.2 µM (inactive); in the test with LOX IMVI, 50.1 µM (inactive); in the test on MOLT-4, 15.2 µM (inactive); in the test on DU-145 it was > 100 µM (inactive). In addition, the GI50 is > 89.1 µM (inactive) with UACC-257; 6.41 µM (inactive) with K562; 7.52 µM (inactive) in the test on NCI-H522; > 69.5 µM (inactive) with SF-539; 16.4 µM (inactive) with PC-3; 51.3 µM (inactive) in the test with UACC-62. Also, the GI50 with RPMI-8226 is 13 µM (inactive); in the test on IGROV-1, > 83 µM (inactive); in the test on A498, > 72.9 µM (inactive); in the test with SF-295, 33.7 µM (inactive); in the test on MDA-MB-231, > 100 µM (inactive); in the test on COLO 205, 31.9 µM (inactive). In addition, the GI50 in the test with HL-60 was 8.34 µM (inactive).
Regarding `OC(c1ccccc1)c1c(-c2ccccc2)oc(-c2ccccc2)c1C(O)c1ccccc1` (stereo not drawn), the GI50 in the test on HT-29 is 11.1 µM (inactive); in the test with SNB-19, 14.8 µM (inactive); in the test on M14, 10 µM (inactive); in the test on LOX IMVI, 11.1 µM (inactive); in the test with MOLT-4 it was 5.06 µM (inactive); in the test on DU-145, 13.7 µM (inactive). The GI50 in the test on K562 is 3.58 µM (inactive); in the test with NCI-H522, 3.15 µM (inactive); with SF-539 it was 16.7 µM (inactive); in the test on PC-3, 9.33 µM (inactive); with UACC-62 it was 11.2 µM (inactive); in the test on RPMI-8226, 2.72 µM (inactive). In addition, the GI50 in the test on IGROV-1 is 14 µM (inactive); with MDA-N, 9.1 µM (inactive); in the test on A498, 16.8 µM (inactive); in the test on SF-295, 15.1 µM (inactive); with COLO 205, 5.87 µM (inactive); in the test with HL-60, 3.26 µM (inactive).
As to `C[N+]1(C)CCC(C#N)(c2ccccc2)CC1`, the GI50 in the test on HT-29, with SNB-19, in the test on M14, with MOLT-4, in the test with DU-145 and in the test with UACC-257 was > 100 µM (inactive) throughout. In addition, the GI50 in the test on K562, with RPMI-8226, in the test on IGROV-1, in the test with MDA-N, in the test with A498 and in the test on SF-295 was > 100 µM (inactive) each time. Also, the GI50 in the test with COLO 205 and in the test on HL-60 was > 100 µM (inactive) in each case.
On to `COc1cc(S(=O)(=O)Nc2ccc(-c3csc(N4C(=O)C(C)SC4c4ccccc4)n3)cc2)ccc1Cl` (stereo not drawn), for which the GI50 is 11.8 µM (inactive) with HT-29; 35.7 µM (inactive) with SNB-19; > 100 µM (inactive) in the test on M14; 10.1 µM (inactive) with LOX IMVI; 33 µM (inactive) in the test on MOLT-4; 40.2 µM (inactive) in the test with DU-145. The GI50 with UACC-257 is 37.4 µM (inactive); with K562, 30.6 µM (inactive); in the test with NCI-H522, 33.8 µM (inactive); in the test on SF-539, 13.4 µM (inactive); in the test with PC-3 it was 19.9 µM (inactive); in the test on UACC-62, 21.4 µM (inactive). The GI50 is 38.4 µM (inactive) with RPMI-8226; 17.5 µM (inactive) with IGROV-1; 19.5 µM (inactive) with MDA-N; 58.6 µM (inactive) with A498; 27.2 µM (inactive) with COLO 205; 21.1 µM (inactive) in the test on HL-60.
On to `CNc1nc(=O)c(C#N)c(-c2ccc(C)cc2)s1`, for which the GI50 in the test on HT-29, in the test with SNB-19, with M14, in the test with LOX IMVI, with MOLT-4 and with DU-145 was > 100 µM (inactive) each time. Besides, the GI50 was > 100 µM (inactive) with UACC-257; > 100 µM (inactive) with K562; 59.3 µM (inactive) in the test on NCI-H522; > 100 µM (inactive) in the test on SF-539; > 100 µM (inactive) in the test with PC-3; > 100 µM (inactive) in the test with UACC-62. For the same compound, the GI50 in the test on IGROV-1 is > 100 µM (inactive); in the test with MDA-N, > 100 µM (inactive); with SF-295, > 100 µM (inactive); with MDA-MB-231, > 100 µM (inactive); in the test on COLO 205, > 100 µM (inactive); with HL-60, 53.7 µM (inactive).
With `CN1CCN(c2n[nH]c(=O)c3c2nnn3Cc2ccccc2)CC1`, the GI50 is 38 µM (inactive) with HT-29; > 100 µM (inactive) in the test on SNB-19; > 100 µM (inactive) in the test on M14; > 100 µM (inactive) in the test with LOX IMVI; > 100 µM (inactive) with MOLT-4; > 100 µM (inactive) in the test on DU-145. Besides, the GI50 in the test with UACC-257 was > 100 µM (inactive); with K562, > 100 µM (inactive); with PC-3, 5.89 µM (inactive); in the test on RPMI-8226, > 100 µM (inactive); in the test with MDA-N, 0.482 µM (active); in the test on SF-295, > 100 µM (inactive). In addition, the GI50 with MDA-MB-231, with COLO 205 and in the test on HL-60 was > 100 µM (inactive) in each case.
For `Clc1ccc(C2=NCON=C2c2ccc(Cl)cc2)cc1`, the GI50 in the test with HT-29 was 13.6 µM (inactive); in the test on SNB-19, 28 µM (inactive); in the test on LOX IMVI it was 15.1 µM (inactive); in the test on MOLT-4 it was 15.9 µM (inactive); in the test with DU-145 it was 30.5 µM (inactive); in the test with UACC-257 it was 25.1 µM (inactive). Moreover, the GI50 in the test with K562 was 23.9 µM (inactive); with SF-539 it was 15.3 µM (inactive); in the test on PC-3 it was 18.2 µM (inactive); in the test with UACC-62 it was 18.9 µM (inactive); in the test with RPMI-8226, 16.8 µM (inactive); in the test on MDA-N it was 18.8 µM (inactive). Further, the GI50 in the test on SF-295 is 16.6 µM (inactive); with MDA-MB-231 it was 18.1 µM (inactive); with COLO 205 it was 16.3 µM (inactive); with HL-60, 14.5 µM (inactive).
In the case of `C/C(=N/NC(=S)Nc1cccc(Cl)c1)c1cccc(/C(C)=N\NC(=S)Nc2cccc(Cl)c2)n1`, the GI50 in the test on HT-29 was 2.27 µM (inactive); in the test with SNB-19, 19.4 µM (inactive); in the test on M14 it was 1.62 µM (inactive); with LOX IMVI it was 1.84 µM (inactive); in the test on MOLT-4, 2.69 µM (inactive); with UACC-257, 4.66 µM (inactive). Also, the GI50 was 2.62 µM (inactive) with K562; 3.03 µM (inactive) in the test with NCI-H522; 0.597 µM (active) in the test with SF-539; 3.46 µM (inactive) in the test on PC-3; 2.1 µM (inactive) in the test with UACC-62; 3.05 µM (inactive) in the test with RPMI-8226. Moreover, the GI50 is 2.03 µM (inactive) in the test with IGROV-1; 20.2 µM (inactive) in the test with MDA-N; 4.85 µM (inactive) with A498; 1.77 µM (inactive) in the test on SF-295; 2.69 µM (inactive) in the test with MDA-MB-231; 1.35 µM (inactive) in the test with COLO 205. The GI50 in the test with HL-60 was 1.22 µM (inactive).
Regarding `O=CC12CCCN1CCC2`, the GI50 in the test on HT-29, with SNB-19, in the test on M14, in the test on LOX IMVI, in the test on MOLT-4 and in the test on DU-145 was > 100 µM (inactive) each time. Also, the GI50 with UACC-257, in the test with K562, with NCI-H522, in the test on PC-3, in the test with UACC-62 and in the test on IGROV-1 was > 100 µM (inactive) throughout. In addition, the GI50 in the test with MDA-N, with SF-295, in the test with MDA-MB-231 and in the test with COLO 205 was > 100 µM (inactive) in each case.
With `CC(NC(=O)C(NC(=O)OC(C)(C)C)C(C)C)C(=O)NCC(=O)ON1C(=O)CCC1=O` (stereo not drawn) (Boc-Val-Ala-Gly-OSu; configuration not given here), the GI50 is > 100 µM (inactive) in the test with HT-29; > 100 µM (inactive) in the test with SNB-19; 88.1 µM (inactive) with M14; 45.9 µM (inactive) in the test with MOLT-4; > 100 µM (inactive) in the test on DU-145; > 100 µM (inactive) in the test on UACC-257. For the same compound, the GI50 was > 100 µM (inactive) with K562; 63.4 µM (inactive) in the test with NCI-H522; > 100 µM (inactive) in the test with SF-539; > 100 µM (inactive) in the test with PC-3; > 100 µM (inactive) in the test with UACC-62; > 100 µM (inactive) in the test with RPMI-8226. The GI50 with IGROV-1, with MDA-N, in the test with SF-295, in the test on MDA-MB-231 and with COLO 205 was > 100 µM (inactive) in each case.
For the compound `COc1c2c(cc3oc(=O)ccc13)OC(C)(C)C=C2` [XANTHOXYLETIN], the GI50 in the test with HT-29 was 35.8 µM (inactive); with SNB-19, 35.6 µM (inactive); in the test on M14, 25.1 µM (inactive); with LOX IMVI, 21.8 µM (inactive); in the test on MOLT-4, 23.8 µM (inactive); in the test on DU-145, 20.4 µM (inactive). Further, the GI50 with UACC-257 is 31.7 µM (inactive); with K562, 35.2 µM (inactive); in the test on NCI-H522, 21 µM (inactive); in the test on SF-539 it was 36.6 µM (inactive); with UACC-62 it was 22.6 µM (inactive); with RPMI-8226, 24.5 µM (inactive). The GI50 is 27.6 µM (inactive) with IGROV-1; 29.4 µM (inactive) in the test with MDA-N; 34.1 µM (inactive) in the test with SF-295; 19.5 µM (inactive) with MDA-MB-231; 25.4 µM (inactive) with COLO 205; 15.8 µM (inactive) in the test on HL-60.
